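1) Cells in 96-well plates. 2) Compound, 48 h, 5 concentrations. 3) Linear interpolation between surrounding doses. 4) Unreached endpoint = highest concentration. GI50 marks 50% less growth.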 Active and inactive are the calls of the source. Rule as the data show it: active = GI50 up to about 1.1 µM and inactive = higher.
Experiments:
Assay in all cases: NCI tumour cell line growth inhibition, 48 h
786-0 = test system: 786-0
A498 = test system: A498
A549 = test system: A549
ACHN = test system: ACHN
BT-549 = test system: BT-549
CAKI-1 = test system: CAKI-1
CCRF-CEM = test system: CCRF-CEM
COLO 205 = test system: COLO 205
DU-145 = test system: DU-145
EKVX = test system: EKVX
HCC 2998 = test system: HCC 2998
HCT-116 = test system: HCT-116
HCT-15 = test system: HCT-15
HL-60 = test system: HL-60
HOP-62 = test system: HOP-62
HOP-92 = test system: HOP-92
HT-29 = test system: HT-29
Hs-578T = test system: Hs-578T
IGROV-1 = test system: IGROV-1
K562 = test system: K562
KM12 = test system: KM12
LOX IMVI = test system: LOX IMVI
M14 = test system: M14
MCF7 = test system: MCF7
MDA-MB-231 = test system: MDA-MB-231
MDA-MB-435 = test system: MDA-MB-435
MDA-N = test system: MDA-N
MOLT-4 = test system: MOLT-4
Malme-3M = test system: Malme-3M
NCI-H226 = test system: NCI-H226
NCI-H23 = test system: NCI-H23
NCI-H460 = test system: NCI-H460
NCI-H522 = test system: NCI-H522
NCI/ADR-RES = test system: NCI/ADR-RES
OVCAR-3 = test system: OVCAR-3
OVCAR-4 = test system: OVCAR-4
OVCAR-5 = test system: OVCAR-5
OVCAR-8 = test system: OVCAR-8
PC-3 = test system: PC-3
RPMI-8226 = test system: RPMI-8226
RXF 393 = test system: RXF 393
SF-268 = test system: SF-268
SF-295 = test system: SF-295
SF-539 = test system: SF-539
SK-MEL-28 = test system: SK-MEL-28
SK-MEL-2 = test system: SK-MEL-2
SK-MEL-5 = test system: SK-MEL-5
SK-OV-3 = test system: SK-OV-3
SN12C = test system: SN12C
SNB-19 = test system: SNB-19
SNB-75 = test system: SNB-75
SR = test system: SR
SW-620 = test system: SW-620
T47D = test system: T47D
UACC-257 = test system: UACC-257
UACC-62 = test system: UACC-62
UO-31 = test system: UO-31
TK-10 = test system: TK-10
U-251 = test system: U-251

**Q.** What does the source list for Cc1ccc([N+](=O)[O-])cc1S(=O)(=O)Nc1ccc(C2=NOC(c3ccccc3)C2)cc1 (stereo unspecified)?
**A.** GI50 (786-0): 13.8 µM (inactive); GI50 (A498): 4.03 µM (inactive); GI50 (A549): 6.89 µM (inactive); GI50 (ACHN): 13.5 µM (inactive); GI50 (BT-549): 12.4 µM (inactive); GI50 (CAKI-1): 7.1 µM (inactive); GI50 (CCRF-CEM): 9.48 µM (inactive); GI50 (COLO 205): 6.7 µM (inactive); GI50 (DU-145): 12 µM (inactive); GI50 (EKVX): 17.7 µM (inactive); GI50 (HCC 2998): 9.04 µM (inactive); GI50 (HCT-116): 7.08 µM (inactive); GI50 (HCT-15): 4.11 µM; GI50 (HL-60): 5.12 µM (inactive); GI50 (HOP-62): 5.3 µM (inactive); GI50 (HOP-92): 15.7 µM (inactive); GI50 (HT-29): 6.78 µM (inactive); GI50 (Hs-578T): 19.8 µM (inactive); GI50 (IGROV-1): 5.48 µM (inactive); GI50 (K562): 1.96 µM (inactive); GI50 (KM12): 3.57 µM (inactive); GI50 (LOX IMVI): 10.9 µM (inactive); GI50 (M14): 4.11 µM (inactive); GI50 (MCF7): 3.25 µM (inactive); GI50 (MDA-MB-231): 8.99 µM (inactive); GI50 (MDA-MB-435): 1.5 µM (inactive); GI50 (MDA-N): 1.99 µM (inactive); GI50 (MOLT-4): 2.61 µM (inactive); GI50 (Malme-3M): 8.63 µM (inactive); GI50 (NCI-H226): 24.9 µM (inactive); GI50 (NCI-H23): 14.5 µM (inactive); GI50 (NCI-H460): 5.52 µM (inactive); GI50 (NCI-H522): 3.27 µM (inactive); GI50 (NCI/ADR-RES): 3.04 µM (inactive); GI50 (OVCAR-3): 3.33 µM (inactive); GI50 (OVCAR-4): 1.32 µM (inactive); GI50 (OVCAR-5): 25.4 µM (inactive); GI50 (OVCAR-8): 18.3 µM (inactive); GI50 (PC-3): 7.19 µM (inactive); GI50 (RPMI-8226): 4.7 µM (inactive); GI50 (RXF 393): 1.82 µM (inactive); GI50 (SF-268): 12.4 µM (inactive); GI50 (SF-295): 3.17 µM (inactive); GI50 (SF-539): 9.77 µM (inactive); GI50 (SK-MEL-28): 18.7 µM (inactive); GI50 (SK-MEL-2): 3.65 µM (inactive); GI50 (SK-MEL-5): 6.47 µM (inactive); GI50 (SK-OV-3): 11.5 µM (inactive); GI50 (SN12C): 12.9 µM (inactive); GI50 (SNB-19): 10.1 µM (inactive); GI50 (SNB-75): 8.18 µM (inactive); GI50 (SR): 1.31 µM (inactive); GI50 (SW-620): 6 µM (inactive); GI50 (T47D): 5.77 µM (inactive); GI50 (UACC-257): 14.7 µM (inactive); GI50 (UACC-62): 3.85 µM (inactive); GI50 (UO-31): 18.2 µM (inactive)

**Q.** How did the GI50 (786-0) turn out when COc1ccc(/C(CC2OC(=O)c3ccccc32)=N\NC(=O)C[N+](C)(C)C)cc1 (stereo unspecified) was run?
**A.** 23.6 µM (inactive)

**Q.** What about the GI50 (A498) of the same molecule?
**A.** 24.3 µM (inactive)

**Q.** And the GI50 (A549)?
**A.** 36 µM (inactive)

**Q.** What about the GI50 (ACHN) of the same molecule?
**A.** 28.2 µM (inactive)

**Q.** And the GI50 (BT-549)?
**A.** 21.5 µM (inactive)

**Q.** What about the GI50 (CAKI-1) of the same molecule?
**A.** 40.3 µM (inactive)

**Q.** And the GI50 (CCRF-CEM)?
**A.** 25.1 µM (inactive)

**Q.** And the GI50 (COLO 205)?
**A.** 27.5 µM (inactive)

**Q.** What about the GI50 (DU-145) of the same molecule?
**A.** 20.5 µM (inactive)

**Q.** And the GI50 (EKVX)?
**A.** 39.4 µM (inactive)

**Q.** What about the GI50 (HCC 2998) of the same molecule?
**A.** 16.3 µM (inactive)

**Q.** What about the GI50 (HCT-116) of the same molecule?
**A.** 22.5 µM (inactive)

**Q.** What about the GI50 (HCT-15) of the same molecule?
**A.** 19.2 µM

**Q.** And the GI50 (HL-60)?
**A.** 33.4 µM (inactive)

**Q.** And the GI50 (HOP-62)?
**A.** 19.2 µM (inactive)

**Q.** And the GI50 (HOP-92)?
**A.** 23.1 µM (inactive)

**Q.** What about the GI50 (HT-29) of the same molecule?
**A.** 19.2 µM (inactive)

**Q.** And the GI50 (Hs-578T)?
**A.** 36.7 µM (inactive)

**Q.** What about the GI50 (IGROV-1) of the same molecule?
**A.** 34.4 µM (inactive)

**Q.** And the GI50 (K562)?
**A.** 19.2 µM (inactive)

**Q.** And the GI50 (KM12)?
**A.** 21.2 µM (inactive)

**Q.** And the GI50 (LOX IMVI)?
**A.** 24.1 µM (inactive)

**Q.** And the GI50 (M14)?
**A.** 38 µM (inactive)

**Q.** And the GI50 (MCF7)?
**A.** 42 µM (inactive)

**Q.** What about the GI50 (MDA-MB-231) of the same molecule?
**A.** 57.3 µM (inactive)

**Q.** What about the GI50 (MDA-MB-435) of the same molecule?
**A.** 24.3 µM (inactive)

**Q.** And the GI50 (MDA-N)?
**A.** 38.2 µM (inactive)

**Q.** What about the GI50 (MOLT-4) of the same molecule?
**A.** 23.7 µM (inactive)

**Q.** What about the GI50 (Malme-3M) of the same molecule?
**A.** 31.1 µM (inactive)

**Q.** And the GI50 (NCI-H226)?
**A.** 21.7 µM (inactive)

**Q.** And the GI50 (NCI-H23)?
**A.** 17.5 µM (inactive)

**Q.** And the GI50 (NCI-H460)?
**A.** 24.6 µM (inactive)

**Q.** And the GI50 (NCI-H522)?
**A.** 24.7 µM (inactive)

**Q.** What about the GI50 (NCI/ADR-RES) of the same molecule?
**A.** 21.2 µM (inactive)

**Q.** And the GI50 (OVCAR-3)?
**A.** 30.3 µM (inactive)

**Q.** What about the GI50 (OVCAR-4) of the same molecule?
**A.** 22.6 µM (inactive)

**Q.** And the GI50 (OVCAR-5)?
**A.** > 100 µM (inactive)

**Q.** What about the GI50 (OVCAR-8) of the same molecule?
**A.** 19.5 µM (inactive)

**Q.** What about the GI50 (PC-3) of the same molecule?
**A.** 47.8 µM (inactive)

**Q.** And the GI50 (RPMI-8226)?
**A.** 15.2 µM (inactive)

**Q.** What about the GI50 (RXF 393) of the same molecule?
**A.** 25.4 µM (inactive)

**Q.** And the GI50 (SF-268)?
**A.** 30.5 µM (inactive)

**Q.** What about the GI50 (SF-295) of the same molecule?
**A.** 47.5 µM (inactive)

**Q.** What about the GI50 (SF-539) of the same molecule?
**A.** 31.2 µM (inactive)

**Q.** And the GI50 (SK-MEL-28)?
**A.** 19.7 µM (inactive)

**Q.** And the GI50 (SK-MEL-2)?
**A.** 23.9 µM (inactive)

**Q.** And the GI50 (SK-MEL-5)?
**A.** 22.5 µM (inactive)

**Q.** What about the GI50 (SK-OV-3) of the same molecule?
**A.** 38.8 µM (inactive)

**Q.** And the GI50 (SN12C)?
**A.** 34.7 µM (inactive)

**Q.** And the GI50 (SNB-19)?
**A.** 29.5 µM (inactive)

**Q.** And the GI50 (SNB-75)?
**A.** 27.7 µM (inactive)

**Q.** What about the GI50 (SR) of the same molecule?
**A.** 18.2 µM (inactive)

**Q.** And the GI50 (SW-620)?
**A.** 25.5 µM (inactive)

**Q.** What about the GI50 (T47D) of the same molecule?
**A.** 25.8 µM (inactive)

**Q.** And the GI50 (TK-10)?
**A.** 33.4 µM (inactive)

**Q.** What about the GI50 (U-251) of the same molecule?
**A.** 17.2 µM (inactive)

**Q.** What about the GI50 (UACC-257) of the same molecule?
**A.** 31.3 µM (inactive)

**Q.** And the GI50 (UACC-62)?
**A.** 15.4 µM (inactive)

**Q.** And the GI50 (UO-31)?
**A.** 26.5 µM (inactive)
